The values below come from EPA's ToxValDB 9.5 (doi:10.2903/j.efsa.2010.1771).

For data set [1], the system named is Daphnia magna. The conditions noted are these: chronic/long-term; duration: 21 days; reproduction.
The test system of data set [2] is Rattus norvegicus.
Data set [3] relates to Colinus virginianus.
Data set [4] concerns Apis mellifera. Conditions: acute; duration: 48 hours; oral; unspecified; mortality.
Data set [5] has as its system Anas platyrhynchos. The conditions noted are these: short-term; oral; feed; mortality.
In data set [6] the test system is Tagia sp. The conditions noted are these: acute; mortality.
Data set [7] concerns Oncorhynchus mykiss.
The subject of data set [8] is Typhlodromus pyri. The conditions noted are these: not reported; mortality.
The test system of data set [9] is Canidae. Conditions: oral, Dog Other, hematological.

SMILES strings stand for the structures. ≈ marks a conversion by molar mass, not a printed value. Bounds are passed on as bounds.

Turning to `CCSC(C)CC1CC(=O)C(C(CC)=NOC/C=C/Cl)=C(O)C1` (stereo not drawn) [Clethodim], the NOEC in data set [1] was determined as 49 mg/L; in [7] (chronic/long-term, duration: 21 days), 3.9 mg/L. For the same compound, the LD50 in [2] (acute, oral, mortality) is 1130 mg/kg; in data set [3] (acute, oral, mortality), greater than 1640 mg/kg; in data set [4], greater than 43 µg/piece. Besides, the NOAEL was found to be 16 mg/kg-day in data set [2] (chronic, duration: 2 years, organ weight); 21 mg/kg-day in data set [9] (chronic, duration: 1 years); 21 mg/kg-day in data set [9] (subchronic, duration: 90 days). Also, the NOEL in data set [3] (reproduction developmental, reproduction) stood at 17 mg/kg-day. Moreover, the LC50 was greater than 851 mg/kg-day in data set [5]; 129 mg/kg in data set [6]; 25 µg/mL (≈ 69.5 µM) in [7] (acute, duration: 96 hours, mortality). For the same compound, the LEL in data set [8] is 9.6 g/ha.
